{
  "source": "patent US20060156421A1",
  "about": "“High throughput screening methods for anti-metastatic compounds” (priority 2004, published 2006)",
  "key": {"dRet": {"test_system": "dRet", "assay": "Drosophila screening: rough eye phenotype of GMR-dRet flies fed compound in microtiter wells", "type": "in vivo, Drosophila melanogaster", "settings": "compound in growth medium", "procedure": "(§1) Accordingly, methods, related apparatus and kits for high throughput screening assays involve the preparation of microtiter plates each with multiple wells, wherein each well initially contains one or more Drosophila embryos with a transgene and an amount of a Drosophila growth medium. The embryos develop while feeding on the growth medium. The precise age of the embryos at the time they are plated matters less than the fact that they are all about the same age, to permit accurate evaluation of the possible effects of the candidate compound on larval and pupal development.\nTo prepare the microtiter plates, for example, 96-well microtiter plates are used, such as those commonly commercially available and typically used for various laboratory assay techniques, including other high throughput drug assay techniques. Into each well is pipetted 50-100 μl of standard Drosophila growth medium. An exemplary range of about 50 to about 100 μl is a balance between (i) providing sufficient food so as not to place undue feeding stress on the developing flies and (ii) providing sufficient air space for the third larval instars to find sufficient wall space to pupate and for minimal stress on the developing larvae and pupae. Any one of several standard Drosophila growth medium recipes as known in the art of breeding Drosophila for research can be used. […]"}, "VEGF-class receptors": {"test_system": "VEGF-class receptors", "settings": "literature citations; cited from earlier work"}, "dRet^MEN2B": {"test_system": "dRet^MEN2B", "assay": "Drosophila screening: rough eye phenotype of GMR-dRet^MEN2B flies fed compound in microtiter wells", "type": "in vivo, Drosophila melanogaster", "procedure": "as §1\nTo prepare the microtiter plates, for example, 96-well microtiter plates are used, such as those commonly commercially available and typically used for various laboratory assay techniques, including other high throughput drug assay techniques. Into each well is pipetted 50-100 μl of standard Drosophila growth medium. An exemplary range of about 50 to about 100 μl is a balance between (i) providing sufficient food so as not to place undue feeding stress on the developing flies and (ii) providing sufficient air space for the third larval instars to find sufficient wall space to pupate and for minimal stress on the developing larvae and pupae. Any one of several standard Drosophila growth medium recipes as known in the art of breeding Drosophila for research can be used.\nIn an exemplary embodiment, a candidate compound, or cocktail of more than one compound, that has been selected for screening is prepared in EtOH or DMSO/aqueous solution. In an exemplary embodiment, EtOH is used. Although DMSO can be used, it can be toxic if it reaches final concentrations of more than 0.3% of the growth medium. The compound in solution is added and allowed to diffuse through the growth medium for an initial period of about 16 to about 24 hours. Alternatively, the compound in solution is mixed with the food by pipetting, by shaking, or by sonicating. […]"}, "Drosophila": {"test_system": "Drosophila", "settings": "Drosophila melanogaster, in vivo", "source_text": "Lethality of candidate compounds for Drosophila can be used to detect and quantify toxicity of candidate compounds. Well known standard statistical methods are used to help distinguish chance results from real toxic effects. Lethality is quantified, for example, by determining the number of Drosophila that fail to develop successfully to adulthood and applying suitable statistical analyses to determine statistical significance. Lethal dose evaluations can be used to quantify the extent of toxicity. […] In another exemplary example, the emergence of most Drosophila adults within a microwell indicates a lowered probability that an introduced compound is toxic.\nFIG. 3 illustrates in part the results of screening compound ZD6474 according to the screening methods of the present invention. […] Therefore, the estimated therapeutic index (ratio of concentrations that are toxic to Drosophila to concentrations that reduce the retinal phenotype is […]."}, "Ret": {"test_system": "Ret", "settings": "previously tested, Carlomagno et al., 2002; cited from earlier work"}},
  "data": [
    {"smiles": "COc1cc2c(Nc3ccc(Br)cc3F)ncnc2cc1OCC1CCN(C)CC1", "note": "[ZD6474]", "values": [
      {"measurement": "inhibition of severity of the rough eye phenotype of dRet", "setting": "dRet", "value": "strongly inhibit"},
      {"measurement": "efficacy for VEGF-class receptors", "setting": "VEGF-class receptors", "value": "some efficacy"},
      {"measurement": "inhibition of severity of the rough eye phenotype of dRet^MEN2B", "setting": "dRet^MEN2B; Drosophila eye, compound in growth medium", "value": "strongly inhibit"},
      {"measurement": "rescue of the dRet^MEN2B phenotype", "setting": "dRet^MEN2B; FIG. 3 panels, varying concentration", "value": "concentration-dependent"},
      {"measurement": "doses at which at least partial rescue was observed", "setting": "dRet^MEN2B; retinal phenotype, lowest effective concentration", "value": "≥ 0.04", "unit": "mM"},
      {"measurement": "concentrations at which toxicity was observed", "setting": "Drosophila", "value": "≥ 2500", "unit": "µM"},
      {"measurement": "estimated therapeutic index (ratio of concentrations toxic to Drosophila to concentrations that reduce the retinal phenotype)", "setting": "Drosophila", "value": 31},
      {"measurement": "effect on Ret activity in a tissue culture model", "setting": "Ret", "value": "reduce Ret activity"}
    ]}
  ]
}
